# Experimental data published in patent publication US12268692B2, “Combinatorial targeted therapy methods” (Postsurgical Therapeutics, Inc., priority 2020, dated 2025).
# Key:
# [1] = In vitro release study of sorafenib and everolimus PLGA microspheres (sample-and-separate method, HPLC); conditions: during in vitro release study
# Protocol: The in vitro release study was carried out by sample-and-separate method. Briefly, 5 mg of microsphere sample (n=3) was taken into 100 mL flask and dispersed in 50 mL of release medium (0.5% Tween 20 and 0.1% sodium azide in phosphate-buffered saline (PBS at pH 7.4)). The flasks were placed in orbital agitating incubator at 37° C. and shacked at 100 rpm. At certain time points, 40 mL medium was taken and centrifuged at 3000 rpm for 2 min. From the supernatant, 30 mL was pipetted and replaced by same amount of the fresh media. In the collected supernatant, the content of the released SOF or EVE was analyzed by high performance liquid chromatography (HPLC).
# [2] = cited from earlier work
# AGS cells = assay: In vitro cytotoxicity study, XTT assay; format: cell-based, human
# Protocol: AGS cells (2×10^4 cells/well) were seeded in a 12-well plates (Corning, Millipore Sigma) with 1 mL of RPMI-1640 medium containing 10% FBS (Fetal Bovine Serum) and incubated for 1 day at 37° C. in a humidified incubator containing 5% CO2. AGS cells were allowed to proliferate for tests of in vitro antitumor activity. In triplicate wells, Group 1 (PBS), Group 2 (ISG formulation without everolimus or trametinib), Group 3 (ISG formulation with 90 μg of everolimus), Group 4 (ISG formulation with 90 μg of trametinib) and Group 5 (ISG formulation with 90 μg of everolimus and 90 μg of tramethinib), Group 6 (cell culture media without AGS cells) and Group 7 (10% ethanol in cell culture media) were added directly into chambers of the 12 well plate to examine the in vitro antitumor activity of these solutions against AGS cancer cells. […]
# (§1) Briefly, 100 μL of PBS solution containing the XTT substrate (50 mg/mL) was added to each 12-well plate and the plates were incubated at 37° C. for 4 h. […] The solution of each well was transferred to a 96-well plate (triplicate for wells 1 and 2 and duplicate for well 3) and read using a microplate reader (Bio-teck XLS800; Bio-Tek Instruments City of Industry, CA). The optical density of the formazan product of each well was measured at a wavelength of 450 nm and a reference wavelength of 630 nm. […]
# [3] = tested on: MIA PaCa-2 pancreatic cell line; assay: In vitro cytotoxicity study, XTT assay; format: cell-based, human; conditions: MIA PaCa-2 cells
# Protocol: (§2) AGS cells (2×10^4 cells/well) were seeded in a 12-well plates (Corning, Millipore Sigma) with 1 mL of RPMI-1640 medium containing 10% FBS (Fetal Bovine Serum) and incubated for 1 day at 37° C. in a humidified incubator containing 5% CO2. AGS cells were allowed to proliferate for tests of in vitro antitumor activity. In triplicate wells, Group 1 (PBS), Group 2 (ISG formulation without everolimus or trametinib), Group 3 (ISG formulation with 90 μg of everolimus), Group 4 (ISG formulation with 90 μg of trametinib) and Group 5 (ISG formulation with 90 μg of everolimus and 90 μg of tramethinib), Group 6 (cell culture media without AGS cells) and Group 7 (10% ethanol in cell culture media) were added directly into chambers of the 12 well plate to examine the in vitro antitumor activity of these solutions against AGS cancer cells.
# (§3) Each 12 well plate chamber was seeded with AGS cells (2×10^4 cells/well). The 12 well plates were maintained at 37° C. in a humidified incubator containing 5% CO2 for 48 hours prior to dosing. To create a drug depot at dosing time, 2 μL of each of the ISG everolimus formulation (90 μg everolimus/well), the ISG trametinib formulation (90 μg trametinib/well) and ISG everolimus-trametinib (90 μg everolimus+90 μg trametinib) formulations were added directly into the media of each corresponding plate well and maintained at 37° C. in a humidified incubator for the duration of the experiment. […]
# as §1
# NCI H441 lung cell line = assay: In vitro cytotoxicity study, XTT assay; format: cell-based, human; conditions: NCI H441 cells
# Protocol: as §2, §3, §1
# [4] = tested on: SW403 colorectal cell line; assay: In vitro cytotoxicity study, XTT assay; format: cell-based, human; conditions: SW403 cells
# Protocol: as §2, §3, §1
stability of EVE inside the microsphere [1],SMILES,stability of EVE as free form in aqueous solution [2],"in vitro cytotoxicity (XTT), ethanol treatment alone (AGS cells; 10% ethanol in cell culture media, 72 h time point)",in vitro cytotoxicity (XTT) (AGS cells; 24 and 72 h of exposure),in vitro cytotoxicity (XTT) [3],in vitro cytotoxicity (XTT) (NCI H441 lung cell line),in vitro cytotoxicity (XTT) [4]
stable inside the microsphere,"CO[C@H]1C[C@@H]2CC[C@@H](C)[C@@](O)(O2)C(=O)C(=O)N2CCCC[C@H]2C(=O)O[C@H]([C@H](C)C[C@@H]2CC[C@@H](OCCO)[C@H](OC)C2)CC(=O)[C@H](C)/C=C(\C)[C@@H](O)[C@@H](OC)C(=O)[C@H](C)C[C@H](C)/C=C/C=C/C=C/1C [EVE, everolimus]",degrade quickly in aqueous solution as free form,–,–,–,–,–
–,CCO [ethanol],–,complete ablation and cytotoxicity of the cancer cells,ablation with a complete cytotoxic effect on the cancer cells,ablation with a complete cytotoxic effect on the cancer cells,ablation with a complete cytotoxic effect on the cancer cells,ablation with a complete cytotoxic effect on the cancer cells
